Laboratory results from patent US10385019B2, “Inhibitors of EGFR and methods of use thereof” (Dana-Farber Cancer Institute, Inc., priority 2015, dated 2019).

The compounds below were run against EGFR T790M/L858R Ba/F3 cell line (Homo sapiens, UniProt P00533, T790M/L858R, cells depend on it) (assay: Ba/F3 cell proliferation model). Details: combined with cetuximab (% cetuximab, 1.0 μM drug concentration with 1.0 μg/mL cetuximab).
Assay type: cell-based, murine
From the text: The selectivity between wild-type EGFR and EGFR containing one or more mutations as described herein can also be measured using cellular proliferation assays where cell proliferation is dependent on kinase activity. For example, murine Ba/F3 cells transfected with a suitable version of wild-type EGFR (such as VIII; containing a WT EGFR kinase domain), or Ba/F3 cells transfected with L858R/T790M, Del/T790M/L718Q, L858R/T790M/L718Q, L858R/T790M/C797S, Del/T790M/C797S, L858R/T790M/I941R, or Exon 19 deletion/T790M can be used.
Cell lines are plated in media. The compounds of the present disclosure are then serially diluted and transferred to the cells. Cell viability is measured via a luminescent readout. Data is analyzed by non-linear regression curve-fitting. […]
The EGFR mutant L858R, Del E746_A750, L858R/T790M, DelE746_A750/T790M, L858R/T790M/C797S and Del/T790M/C797S Ba/F3 cells have been previously described (Zhou, W., Ercan, D., Chen, L., Yun, C. H., Li, D., Capelletti, M., Cortot, A. B., Chirieac, L., Iacob, R. E., Padera, R., et al. “Novel mutant-selective EGFR kinase inhibitors against EGFR T790M,” Nature 462, (2009), 1070-1074). All cell lines were maintained in RPMI 1640 (Cellgro; Mediatech Inc., Herndon, Calif.) supplemented with 10% FBS 100 units/mL penicillin, 100 units/mL streptomycin, and 2 mM glutamine. L858R cells were maintained in ACL-4 media (Invitrogen, Carlsbad, Calif.) supplemented with 5% FBS, 100 units/mL penicillin, 100 units/mL streptomycin, and 2 mM glutamine. The EGFR I941R mutation was introduced via site directed mutagenesis using the Quick Change Site-Directed Mutagenesis kit (Stratagene; La Jolla, Calif.) according to the manufacturer's instructions. All constructs were confirmed by DNA sequencing. The constructs were shuttled into the retroviral vector JP 1540 using the BD Creator™ System (BD Biosciences). Ba/F3 cells were infected with retrovirus and according to standard protocols, as described previously (Zhou et al, Nature 2009). Stable clones were obtained by selection in puromycin (2 μg/ml).
Growth and inhibition of growth was assessed by MTS assay and was performed according to previously established methods (Zhou et al., Nature 2009). The MTS assay is a colorimetric method for determining the number of viable cells that is based on the bioreduction of MTS by cells to a formazan product that is soluble in cell culture medium and can be detected spectrophotometrically. Ba/F3 cells of different EGFR genotypes were exposed to treatment for 72 hours and the number of cells used per experiment determined empirically and has been previously established (Zhou et al., Nature 2009). All experimental points were set up in six wells and all experiments were repeated at least three times. […] The curves were fitted using a non-linear regression model with a sigmoidal dose response.
Inhibition data of an EGFR T790M/L858R Ba/F3 cell line.

Chain of EGFR T790M/L858R Ba/F3 cell line (P00533 whole entry T790M/L858R): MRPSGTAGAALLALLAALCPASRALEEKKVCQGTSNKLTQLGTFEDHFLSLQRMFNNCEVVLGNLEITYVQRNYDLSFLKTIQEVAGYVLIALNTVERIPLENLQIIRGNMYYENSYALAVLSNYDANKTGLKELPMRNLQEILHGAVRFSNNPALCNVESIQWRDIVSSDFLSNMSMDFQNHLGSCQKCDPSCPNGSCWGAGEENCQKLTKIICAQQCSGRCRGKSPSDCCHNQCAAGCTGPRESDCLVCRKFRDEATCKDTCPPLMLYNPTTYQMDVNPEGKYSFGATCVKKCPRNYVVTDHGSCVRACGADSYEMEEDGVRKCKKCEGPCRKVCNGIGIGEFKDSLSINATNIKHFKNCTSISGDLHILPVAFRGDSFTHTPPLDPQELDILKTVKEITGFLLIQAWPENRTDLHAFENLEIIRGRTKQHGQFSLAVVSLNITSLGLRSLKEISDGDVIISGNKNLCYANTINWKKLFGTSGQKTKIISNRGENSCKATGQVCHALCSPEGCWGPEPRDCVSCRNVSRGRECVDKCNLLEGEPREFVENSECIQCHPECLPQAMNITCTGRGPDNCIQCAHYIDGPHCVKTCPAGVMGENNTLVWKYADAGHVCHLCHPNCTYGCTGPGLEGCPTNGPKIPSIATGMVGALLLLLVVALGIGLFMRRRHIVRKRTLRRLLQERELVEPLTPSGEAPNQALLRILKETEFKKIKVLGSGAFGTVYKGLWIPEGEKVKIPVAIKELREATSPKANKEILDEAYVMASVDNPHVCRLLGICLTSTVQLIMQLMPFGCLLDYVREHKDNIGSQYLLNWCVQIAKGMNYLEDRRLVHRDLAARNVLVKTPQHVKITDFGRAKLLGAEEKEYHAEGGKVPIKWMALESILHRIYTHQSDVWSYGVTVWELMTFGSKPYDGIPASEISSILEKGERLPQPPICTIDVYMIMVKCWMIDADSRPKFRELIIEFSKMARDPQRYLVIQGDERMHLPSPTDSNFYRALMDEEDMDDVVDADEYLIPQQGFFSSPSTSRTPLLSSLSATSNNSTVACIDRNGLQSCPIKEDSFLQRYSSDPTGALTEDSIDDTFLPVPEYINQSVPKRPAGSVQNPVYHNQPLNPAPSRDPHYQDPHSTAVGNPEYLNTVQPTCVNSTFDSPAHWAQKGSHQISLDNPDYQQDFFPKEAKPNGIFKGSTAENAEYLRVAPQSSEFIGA

Activity (% inhibition)	Compound
A (a % inhibition of about 75%)	CN(C)CCCCNC(=O)c1csc(NC(=O)[C@@H](c2ccccc2)N2Cc3ccccc3C2=O)n1 [Compound I-15, (R)-N-(4-(dimethylamino)butyl)-2-(2-(1-oxoisoindolin-2-yl)-2-phenylacetamido)thiazole-4-carboxamide]
A (a % inhibition of about 75%)	O=C(Nc1ncccc1Cl)[C@@H](c1ccccc1)N1Cc2ccccc2C1=O [Compound I-57, (R)-N-(3-chloropyridin-2-yl)-2-(1-oxoisoindolin-2-yl)-2-phenylacetamide]
A (a % inhibition of about 75%)	O=C(Nc1nccs1)[C@@H](c1ccccc1)N1Cc2cc(Nc3ccc(OCc4ccccc4)cc3)ccc2C1=O [Compound I-96, (R)-2-(5-((4-(benzyloxy)phenyl)amino)-1-oxoisoindolin-2-yl)-2-phenyl-N-(thiazol-2-yl)acetamide]
A (a % inhibition of about 75%)	O=C(Nc1cc(C2CC2)n[nH]1)[C@@H](c1ccccc1)N1Cc2ccccc2C1=O [Compound I-26, (R)-N-(3-cyclopropyl-1H-pyrazol-5-yl)-2-(1-oxoisoindolin-2-yl)-2-phenylacetamide]
A (a % inhibition of about 75%)	O=C(Nc1ncco1)[C@@H](c1ccccc1)N1Cc2ccccc2C1=O [Compound I-19, (R)-N-(oxazol-2-yl)-2-(1-oxoisoindolin-2-yl)-2-phenylacetamide]
A (a % inhibition of about 75%)	O=C(NCCN1CCOCC1)c1csc(NC(=O)[C@@H](c2ccccc2)N2Cc3ccccc3C2=O)n1 [Compound I-10, (R)-N-(2-morpholinoethyl)-2-(2-(1-oxoisoindolin-2-yl)-2-phenylacetamido)thiazole-4-carboxamide]
A (a % inhibition of about 75%)	CN(C)CCCNC(=O)c1csc(NC(=O)[C@@H](c2ccccc2)N2Cc3ccccc3C2=O)n1 [Compound I-11, (R)-N-(3-(dimethylamino)propyl)-2-(2-(1-oxoisoindolin-2-yl)-2-phenylacetamido)thiazole-4-carboxamide]
A (a % inhibition of about 75%)	C[C@H](C(=O)Nc1nccs1)N1Cc2ccc(-c3ccc(N4CCNCC4)cc3)cc2C1=O [Compound I-118, (R)-2-(1-oxo-6-(4-(piperazin-1-yl)phenyl)isoindolin-2-yl)-N-(thiazol-2-yl)propanamide]
A (a % inhibition of about 75%)	O=C(Nc1nccs1)[C@@H](c1cccc([N+](=O)[O-])c1)N1Cc2ccccc2C1=O [Compound I-18, (R)-2-(3-nitrophenyl)-2-(1-oxoisoindolin-2-yl)-N-(thiazol-2-yl)acetamide]
A (a % inhibition of about 75%)	O=C(Nc1ccccc1Cl)[C@@H](c1ccccc1)N1Cc2ccccc2C1=O [Compound I-52, (R)-N-(2-chlorophenyl)-2-(1-oxoisoindolin-2-yl)-2-phenylacetamide]
A (a % inhibition of about 75%)	O=C(Nc1cc(Br)ccn1)[C@H](c1ccccc1)N1Cc2ccccc2C1=O [Compound I-29, (S)-N-(4-bromopyridin-2-yl)-2-(1-oxoisoindolin-2-yl)-2-phenylacetamide]
A (a % inhibition of about 75%)	O=C(Nc1ncc[nH]1)[C@H](c1ccccc1)N1Cc2ccccc2C1=O [Compound I-35, (S)-N-(1H-imidazol-2-yl)-2-(1-oxoisoindolin-2-yl)-2-phenylacetamide]
A (a % inhibition of about 75%)	Nc1cccc([C@H](C(=O)Nc2nccs2)N2Cc3ccccc3C2=O)c1 [Compound I-38, (R)-2-(3-aminophenyl)-2-(1-oxoisoindolin-2-yl)-N-(thiazol-2-yl)acetamide]
A (a % inhibition of about 75%)	O=C(Nc1cc(C(F)(F)F)n[nH]1)[C@@H](c1ccccc1)N1Cc2ccccc2C1=O [Compound I-30, (R)-2-(1-oxoisoindolin-2-yl)-2-phenyl-N-(3-(trifluoromethyl)-1H-pyrazol-5-yl)acetamide]
A (a % inhibition of about 75%)	O=C(Nc1cnsc1)[C@@H](c1ccccc1)N1Cc2ccc(-c3ccc4[nH]ccc4c3)cc2C1=O [Compound I-128, (R)-2-(6-(1H-indol-5-yl)-1-oxoisoindolin-2-yl)-N-(isothiazol-4-yl)-2-phenylacetamide]

Compound	Activity (% inhibition)
CN(C)CCCCNC(=O)c1cccc(-c2ccc3c(c2)C(=O)N([C@@H](C(=O)Nc2nccs2)c2ccccc2)C3)c1 [Compound I-89, (R)-N-(4-(dimethylamino)butyl)-(3-oxo-2-(2-oxo-1-phenyl-2-(thiazol-2-ylamino)ethyl)isoindolin-5-yl)benzamide]	B (a % inhibition of between about 50% to about 75%)
O=C(Nc1nccs1)[C@@H](c1ccccc1)N1Cc2ccc(-c3ccc(C(=O)N4CCOCC4)cc3)cc2C1=O [Compound I-85, (R)-2-(6-(4-(morpholine-4-carbonyl)phenyl)-1-oxoisoindolin-2-yl)-2-phenyl-N-(thiazol-2-yl)acetamide]	D (a % inhibition of between about 0% to about 25%)
O=C(Nc1nccs1)[C@@H](c1ccccc1)N1Cc2ccc(-c3cn[nH]c3)cc2C1=O [Compound I-64, (R)-2-(1-oxo-6-(1H-pyrazol-4-yl)isoindolin-2-yl)-2-phenyl-N-(thiazol-2-yl)acetamide]	B (a % inhibition of between about 50% to about 75%)
O=C(Nc1nccs1)[C@@H](c1ccccc1)N1Cc2ccc(Nc3cccc(CN4CCCC4)c3)cc2C1=O [Compound I-100, (R)-2-(1-oxo-6-((3-(pyrrolidin-1-ylmethyl)phenyl)amino)isoindolin-2-yl)-2-phenyl-N-(thiazol-2-yl)acetamide]	D (a % inhibition of between about 0% to about 25%)
COC(=O)c1cc(Br)ccc1N[C@@H](C(=O)Nc1nccs1)c1ccccc1 [Compound I-106, methyl (R)-5-bromo-2-((2-oxo-1-phenyl-2-(thiazol-2-ylamino)ethyl)amino)benzoate]	B (a % inhibition of between about 50% to about 75%)
O=C(Nc1nccs1)[C@@H](c1ccccc1)N1Cc2ccc(-c3ccsc3)cc2C1=O [Compound I-47, (R)-2-(1-oxo-6-(thiophen-3-yl)isoindolin-2-yl)-2-phenyl-N-(thiazol-2-yl)acetamide]	B (a % inhibition of between about 50% to about 75%)
O=C(Nc1ncccc1F)[C@@H](c1ccccc1)N1Cc2ccccc2C1=O [Compound I-56, (R)-N-(3-fluoropyridin-2-yl)-2-(1-oxoisoindolin-2-yl)-2-phenylacetamide]	B (a % inhibition of between about 50% to about 75%)
O=C(Nc1nccs1)[C@@H](c1ccccc1)N1Cc2cc(Nc3ccc(N4CCOCC4)cc3)ccc2C1=O [Compound I-94, (R)-2-(5-((4-morpholinophenyl)amino)-1-oxoisoindolin-2-yl)-2-phenyl-(thiazol-2-yl)acetamide]	C (a % inhibition of between about 25% to about 50%)
O=C(Nc1ncc[nH]1)[C@@H](c1ccccc1)N1Cc2ccc(-c3ccc4[nH]ccc4c3)cc2C1=O [Compound I-133, (R)-2-(6-(1H-indol-5-yl)-1-oxoisoindolin-2-yl)-N-(1H-imidazol-2-yl)-2-phenylacetamide]	D (a % inhibition of between about 0% to about 25%)
O=C(Nc1nccs1)[C@@H](c1ccccc1)N1Cc2ccc(-c3cccc4cccnc34)cc2C1=O [Compound I-71, (R)-2-(1-oxo-6-(quinolin-8-yl)isoindolin-2-yl)-2-phenyl-N-(thiazol-2-yl)acetamide]	C (a % inhibition of between about 25% to about 50%)
O=C(Nc1nccs1)[C@@H](c1ccccc1)N1Cc2ccc(-c3ccc(F)cc3)cc2C1=O [Compound I-77, (R)-2-(6-(4-fluorophenyl)-1-oxoisoindolin-2-yl)-2-phenyl-N-(thiazol-2-yl)acetamide]	B (a % inhibition of between about 50% to about 75%)
